Measurements as given in patent US20160214972A1, “COMPOUNDS AND METHODS FOR THE TARGETED DEGRADATION OF ANDROGEN RECEPTOR” (Arvinas, Inc., priority 2015, published 2016).
Entries after “also recorded” stand apart in the source; their conditions may differ.

Columns and labels:
[1] = tested on: LNCaP cells transduced with AR F876L construct; assay: Anti-proliferation in LNCaP F876L (CellTiterGlo); assay type: cell-based; conditions: Charcoal Stripped Serum media, 7 days
Protocol: FIG. 3. Anti-proliferation in LNCaP F876L. […] LNCaP cells transduced with AR F876L construct were cultured in Charcoal Stripped Serum containing media.
LNCaP cells transduced with AR F876L construct were cultured in Charcoal Stripped Serum containing media. […] CellTiterGlo reagent (Promega) was employed to assess proliferation.

AR = target: T1, AR (Homo sapiens, UniProt P10275+P40337, T878A); assay: AR degradation of PROTAC is E3 ligase dependent (LNCaP cells); assay type: cell-based; conditions: 24 hours
T1 construct: endogenous in cells; host or cells: LNCaP cells
T1 sequence (P10275 whole entry T878A): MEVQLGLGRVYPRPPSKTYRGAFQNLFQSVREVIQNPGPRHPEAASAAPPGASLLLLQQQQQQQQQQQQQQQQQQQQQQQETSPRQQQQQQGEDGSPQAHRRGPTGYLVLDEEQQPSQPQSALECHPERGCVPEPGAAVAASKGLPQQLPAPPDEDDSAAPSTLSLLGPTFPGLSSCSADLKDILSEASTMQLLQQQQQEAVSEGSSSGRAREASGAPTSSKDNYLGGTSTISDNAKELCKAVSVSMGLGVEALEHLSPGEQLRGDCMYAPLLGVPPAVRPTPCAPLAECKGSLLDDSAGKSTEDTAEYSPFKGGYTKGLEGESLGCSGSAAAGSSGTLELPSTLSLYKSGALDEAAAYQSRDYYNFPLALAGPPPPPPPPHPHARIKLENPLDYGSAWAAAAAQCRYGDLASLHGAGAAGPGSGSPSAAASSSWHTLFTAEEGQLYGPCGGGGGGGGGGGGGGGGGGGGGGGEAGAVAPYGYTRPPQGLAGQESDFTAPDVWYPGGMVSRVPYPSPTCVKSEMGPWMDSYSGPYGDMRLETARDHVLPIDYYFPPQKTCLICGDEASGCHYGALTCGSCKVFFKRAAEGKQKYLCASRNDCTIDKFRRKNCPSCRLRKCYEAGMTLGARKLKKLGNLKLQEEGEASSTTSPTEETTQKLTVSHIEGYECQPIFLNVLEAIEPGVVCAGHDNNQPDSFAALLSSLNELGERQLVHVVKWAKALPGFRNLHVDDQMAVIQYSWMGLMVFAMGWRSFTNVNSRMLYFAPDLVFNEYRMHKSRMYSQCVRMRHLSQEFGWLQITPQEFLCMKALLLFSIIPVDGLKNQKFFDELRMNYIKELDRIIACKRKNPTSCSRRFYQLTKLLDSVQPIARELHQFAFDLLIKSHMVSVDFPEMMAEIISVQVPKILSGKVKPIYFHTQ
T1 sequence (P40337 whole entry): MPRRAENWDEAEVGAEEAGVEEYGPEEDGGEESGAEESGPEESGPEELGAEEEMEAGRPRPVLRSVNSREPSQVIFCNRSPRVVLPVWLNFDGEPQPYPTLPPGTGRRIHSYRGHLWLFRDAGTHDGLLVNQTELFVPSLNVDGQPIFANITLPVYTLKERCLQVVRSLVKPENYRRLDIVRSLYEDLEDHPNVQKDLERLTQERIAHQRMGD
T1 sequence (Q15369 whole entry partner): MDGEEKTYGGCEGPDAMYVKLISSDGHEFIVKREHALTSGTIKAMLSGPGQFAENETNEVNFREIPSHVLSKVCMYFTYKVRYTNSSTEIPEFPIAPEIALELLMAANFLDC
T1 sequence (Q15370 whole entry partner): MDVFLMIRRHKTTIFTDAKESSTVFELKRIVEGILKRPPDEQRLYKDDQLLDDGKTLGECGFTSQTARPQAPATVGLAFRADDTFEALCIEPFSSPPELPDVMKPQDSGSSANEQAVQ
T1 sequence (Q13617 whole entry partner): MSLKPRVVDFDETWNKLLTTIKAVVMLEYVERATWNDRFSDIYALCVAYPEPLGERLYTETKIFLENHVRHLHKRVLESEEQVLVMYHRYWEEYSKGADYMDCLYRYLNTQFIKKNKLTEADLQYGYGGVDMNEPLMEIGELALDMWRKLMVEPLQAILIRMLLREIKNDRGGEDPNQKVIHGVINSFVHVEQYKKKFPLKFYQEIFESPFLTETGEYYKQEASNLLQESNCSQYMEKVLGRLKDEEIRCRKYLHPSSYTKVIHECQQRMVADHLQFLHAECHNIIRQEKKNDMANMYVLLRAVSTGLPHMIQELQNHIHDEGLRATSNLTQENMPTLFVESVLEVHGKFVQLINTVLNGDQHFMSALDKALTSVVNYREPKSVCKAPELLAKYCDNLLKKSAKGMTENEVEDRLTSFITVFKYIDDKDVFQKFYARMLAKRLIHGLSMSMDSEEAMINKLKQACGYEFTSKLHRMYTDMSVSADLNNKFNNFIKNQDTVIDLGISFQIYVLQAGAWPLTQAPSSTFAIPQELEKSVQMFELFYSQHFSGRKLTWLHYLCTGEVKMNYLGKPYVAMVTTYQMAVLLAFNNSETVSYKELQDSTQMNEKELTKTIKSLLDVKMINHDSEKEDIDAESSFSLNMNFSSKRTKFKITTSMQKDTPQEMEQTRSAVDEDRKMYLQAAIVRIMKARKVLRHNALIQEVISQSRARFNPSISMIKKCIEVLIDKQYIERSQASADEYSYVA
T1 sequence (P62877 whole entry partner): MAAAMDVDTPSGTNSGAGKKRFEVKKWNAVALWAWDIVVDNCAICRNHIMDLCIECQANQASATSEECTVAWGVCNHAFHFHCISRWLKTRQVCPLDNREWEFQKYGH
Excerpt: FIG. 7A and FIG. 7B. AR degradation of PROTAC is E3 ligase dependent.

Androgen Receptor = Androgen Receptor ELISA assay (PathScan AR ELISA) in LNCaP and/or VCaP cells; assay type: cell-based; conditions: highest percentage of Androgen Receptor degradation observed
VCaP xenograft = assay: Tumor growth inhibition in VCaP xenograft model; assay type: in vivo; conditions: castrated CB17 scid mice with VCaP tumors; enzalutamide PO, QD, 30 mpk; Example 163 IP, QD, 30, 10 and 3 mpk
Excerpt: FIG. 6. Tumor growth inhibition in VCaP xenograft model. VCaP cells were implanted into CB17 scid mice subcutaneously. Once the tumors were palpable, the mice were castrated, leading to temporary tumor stasis.
VCaP cells were implanted into CB17 scid mice subcutaneously. Once the tumors were palpable, the mice were castrated, leading to temporary tumor stasis.

prostate = assay: Prostate involution in C57B6 mouse model; assay type: in vivo; conditions: 12-week old male C57BL/6 mice; IP, QD, 1 and 3 mpk for 10 days
Excerpt: FIG. 5. Prostate involution in C57B6 mouse model.

In the case of `Cc1ncsc1-c1ccc(CNC(=O)[C@@H]2C[C@@H](O)CN2C(=O)[C@@H](NC(=O)COCCCOCCCCCOc2ccc(N3C(=S)N(c4ccc(C#N)c(C(F)(F)F)c4)C(=O)C3(C)C)cc2)C(C)(C)C)cc1` [Example 1, (2S,4R)-1-((S)-2-(2-(3-(5-(4-(3-(4-cyano-3-(trifluoromethyl)phenyl)-5,5-dimethyl-4-oxo-2-thioxoimidazolidin-1-yl)phenoxy)pentyloxy)propoxy)acetamido)-3,3-dimethylbutanoyl)-4-hydroxy-N-(4-(4-methylthiazol-5-yl)benzyl)pyrrolidine-2-carboxamide], the “proliferation of LNCaP F876L cells (agonist activity)” value [1] is reported as “did not exhibit agonist activity; also recorded: Anti-proliferation in LNCaP F876L cells observed”, the “AR degradation in LNCaP cells” value (AR) is reported as “significant degradation of AR” and the “AR degradation in LNCaP cells in the presence of VHL E3 ligase ligand compound B” value (AR; 10 uM compound B) is reported as “greatly diminishes the AR degradation activity”.
In the case of `Cc1ncsc1-c1ccc(CNC(=O)[C@@H]2C[C@@H](O)CN2C(=O)[C@@H](NC(=O)COCCOCCOc2ccc(-c3ccc(N4C(=S)N(c5ccc(C#N)c(C(F)(F)F)c5)C(=O)C4(C)C)cc3)cc2)C(C)(C)C)cc1` [Example 67, (2S,4R)-1-((S)-2-(2-(2-(2-(4′-(3-(4-cyano-3-(trifluoromethyl)phenyl)-5,5-dimethyl-4-oxo-2-thioxoimidazolidin-1-yl)biphenyl-4-yloxy)ethoxy)ethoxy)acetamido)-3,3-dimethylbutanoyl)-4-hydroxy-N-(4-(4-methylthiazol-5-yl)benzyl)pyrrolidine-2-carboxamide], the “LNCaP Dmax (%)” value (Androgen Receptor) is reported as 72.1%.
For `Cc1ncsc1-c1ccc(CNC(=O)[C@@H]2C[C@@H](O)CN2C(=O)[C@@H](NC(=O)COCCCCOc2ccc(C(=O)N[C@H]3C(C)(C)[C@H](Oc4ccc(C#N)c(Cl)c4)C3(C)C)cc2)C(C)(C)C)cc1` [Example 163, (2S,4R)-1-[(2S)-3,3-dimethyl-2-{2-[4-(4-{[trans-3-(3-chloro-4-cyanophenoxy)-2,2,4,4-tetramethylcyclobutyl]carbamoyl}phenoxy)butoxy]acetamido}butanoyl]-4-hydroxy-N-{[4-(4-methyl-1,3-thiazol-5-yl)phenyl]methyl}pyrrolidine-2-carboxamide], the tumor growth inhibition (VCaP xenograft) was “Tumor growth inhibition was observed in all treatment arms” and the “prostate weights (prostate involution)” value (prostate) was “significant reduction in prostate weights; also recorded: significant prostate involution in mice at very low doses”.
With `CNC(=O)c1ccc(N2C(=S)N(c3ccc(C#N)c(C(F)(F)F)c3)C(=O)C2(C)C)cc1F` [enzalutamide, reference compound] the tumor growth inhibition (VCaP xenograft) was “Tumor growth inhibition was observed in all treatment arms”.
